From the supplement of paper PMC10307832

Experiments:
Assay in all cases: relative viability (nuclei count vs DMSO), 5 days (fraction); higher = more cells survive
Palbociclib + Decitabine = compound: CC(=O)c1c(C)c2cnc(Nc3ccc(N4CCNCC4)cn3)nc2n(C2CCCC2)c1=O [Palbociclib] + Nc1ncn([C@H]2C[C@H](O)[C@@H](CO)O2)c(=O)n1 [Decitabine] (partner 2 µM)
How it was run: (§1)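 Relative viability is defined as nuclei in treated wells over nuclei in vehicle wells. Duplicate plates were run and medians reported. Lung cancer cell lines in 1536-well plates were dosed by pin tool one day after seeding, with one drug or with a fixed anchor-drug dose plus five library-drug doses (not always all listed) in √10 steps, and nuclei were counted after 5 days.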

Palbociclib + Pemetrexed = compound: CC(=O)c1c(C)c2cnc(Nc3ccc(N4CCNCC4)cn3)nc2n(C2CCCC2)c1=O [Palbociclib] + Nc1nc2[nH]cc(CCc3ccc(C(=O)N[C@@H](CCC(=O)O)C(=O)O)cc3)c2c(=O)[nH]1 [Pemetrexed] (partner 0.2 µM)
How it was run: as §1

Palbociclib + Pictilisib = compound: CC(=O)c1c(C)c2cnc(Nc3ccc(N4CCNCC4)cn3)nc2n(C2CCCC2)c1=O [Palbociclib] + CS(=O)(=O)N1CCN(Cc2cc3nc(-c4cccc5[nH]ncc45)nc(N4CCOCC4)c3s2)CC1 [Pictilisib] (partner 1 µM)
How it was run: as §1

Palbociclib + Tozasertib = compound: CC(=O)c1c(C)c2cnc(Nc3ccc(N4CCNCC4)cn3)nc2n(C2CCCC2)c1=O [Palbociclib] + Cc1cc(Nc2cc(N3CCN(C)CC3)nc(Sc3ccc(NC(=O)C4CC4)cc3)n2)n[nH]1 [Tozasertib] (partner 0.1 µM)
How it was run: as §1

Cell Line	relative viability (Palbociclib + Decitabine; first compound 0.01 µM)	relative viability (Palbociclib + Decitabine; first compound 0.03162 µM)	relative viability (Palbociclib + Decitabine; first compound 0.1 µM)	relative viability (Palbociclib + Decitabine; first compound 0.3162 µM)	relative viability (Palbociclib + Decitabine; first compound 1 µM)	relative viability (Palbociclib + Pemetrexed; first compound 0.01 µM)	relative viability (Palbociclib + Pemetrexed; first compound 0.03162 µM)	relative viability (Palbociclib + Pemetrexed; first compound 0.1 µM)	relative viability (Palbociclib + Pemetrexed; first compound 0.3162 µM)	relative viability (Palbociclib + Pemetrexed; first compound 1 µM)	relative viability (Palbociclib + Pictilisib; first compound 0.01 µM)	relative viability (Palbociclib + Pictilisib; first compound 0.03162 µM)	relative viability (Palbociclib + Pictilisib; first compound 0.1 µM)	relative viability (Palbociclib + Pictilisib; first compound 0.3162 µM)	relative viability (Palbociclib + Pictilisib; first compound 1 µM)	relative viability (Palbociclib + Tozasertib; first compound 0.01 µM)	relative viability (Palbociclib + Tozasertib; first compound 0.03162 µM)	relative viability (Palbociclib + Tozasertib; first compound 0.1 µM)	relative viability (Palbociclib + Tozasertib; first compound 0.3162 µM)	relative viability (Palbociclib + Tozasertib; first compound 1 µM)
201T	0.827	0.836	0.836	0.834	0.665	0.343	0.342	0.358	0.372	0.283	0.68	0.61	0.622	0.525	0.464	0.984	0.906	0.914	0.797	0.614
A549	0.269		0.245	0.274	0.302						0.472	0.318	0.293	0.283	0.203					
A-427	0.6	0.581	0.489	0.539	0.519	0.96	0.879	0.779	0.633	0.497	0.703	0.648	0.592	0.447	0.347	0.203	0.205	0.224	0.227	0.209
ABC-1	0.948	1.03	1.23	0.978	0.873						0.756	0.758	0.532	0.516	0.423	0.161	0.184	0.18	0.215	0.217
BEN	0.692	0.521	0.596	0.68	0.422	0.894	0.596	0.609	0.585	0.38	0.612	0.425	0.402	0.411	0.3	0.563	0.429	0.541	0.608	0.697
CAL-12T						1.14	1.1	0.924	0.672	0.637	0.471			0.263	0.281	0.294	0.307	0.305	0.259	0.271
COR-L23	0.414	0.369	0.322	0.363	0.33	0.183	0.202	0.201	0.191	0.203	0.772	0.655	0.503	0.463	0.328	0.197	0.146	0.16	0.157	0.124
COR-L 105	0.777	0.629	0.554	0.604	0.452	1.21	0.802	0.778	0.697	0.47	0.384	0.337	0.261	0.319	0.367	0.379	0.335	0.341	0.308	0.318
Calu-6											0.908	0.779	0.698	0.508	0.371					
ChaGo-K-1	0.517		0.554	0.522	0.518	0.259		0.261	0.257	0.26	0.836	0.51	0.753	0.955	1.12	0.218	0.21	0.25	0.225	0.223
EBC-1											0.366	0.241	0.202	0.178	0.183					
EKVX	0.383		0.281	0.307	0.293	0.392		0.353	0.317	0.243	0.478	0.363	0.223	0.281	0.249	0.366	0.396	0.341	0.398	0.311
IA-LM											0.299	0.215	0.167	0.113	0.0912					
NCI-H522	0.749	0.646	0.635	0.736	0.709	1.2	0.504	0.99	1.02	0.932						0.604	0.517	0.573	0.469	0.539
NCI-H727	0.866	0.964	0.895	0.829	0.669						0.401	0.287	0.258	0.318	0.239	0.589	0.482	0.52	0.529	0.405
NCI-H1299											0.762	0.486	0.541	0.347	0.259					
NCI-H1563						0.836	0.729	0.746	0.795	0.629	0.668	0.614	0.555	0.618	0.613					
NCI-H1648	0.651	0.376	0.445	0.511	0.339	0.76	0.549	0.562	0.582	0.411						0.585		0.405	0.526	0.175
NCI-H1703											0.225	0.211	0.242	0.252	0.21					
NCI-H1792	0.567	0.432	0.597	0.469	0.389	0.984	0.557	0.438	0.427	0.264	0.298	0.255	0.222	0.229	0.15					
NCI-H2228						0.312	0.352	0.337	0.341	0.346	0.298	0.351	0.289	0.358	0.482	0.247	0.235	0.247	0.261	0.23
SW 900	0.393		0.475	0.478	0.484	0.46		0.528	0.51	0.422						0.557		0.461	0.417	0.506
